# Measurements as given in PubChem BioAssay AID1963848 (Molecular Pharmacology Branch, DTP, NCI, 2024).
# Test system: 379773-124-R-J2-PDC spheroid viability
# Assay: Anticancer human tumor 379773-124-R-J2-PDC patient-derived endometrial carcinoma cell line growth inhibition [POLQ]
# Conditions: spheroids with HUVEC and MSC; for IC50: curve of first compound; for viability, T/C: stronger effect = lower value
# Method in brief: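 Patient-derived tumour cells were co-cultured with HUVEC and mesenchymal stem cells as multicellular spheroids at 37 °C. They were treated with POLQ inhibitors (novobiocin, ART-558, RP6685) alone or combined with other agents. Top concentrations were at or near clinical Cmax (otherwise 10 microM; SN-38 at 1 microM), decreasing in half-log steps.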
# [1] = second compound 0.0316 µM, first compound 0.00316 µM
# [2] = second compound 0.0316 µM, first compound 0.01 µM
# [3] = second compound 0.0316 µM, first compound 0.0316 µM
# [4] = second compound 0.0316 µM, first compound 0.1 µM
# [5] = second compound 0.0316 µM, first compound 0.316 µM
# [6] = second compound 0.0316 µM, first compound 1 µM
# [7] = second compound 0.1 µM, first compound 0.00316 µM
# [8] = second compound 0.1 µM, first compound 0.01 µM
# [9] = second compound 0.1 µM, first compound 0.0316 µM
# [10] = second compound 0.1 µM, first compound 0.1 µM
# [11] = second compound 0.1 µM, first compound 0.316 µM
# [12] = second compound 0.1 µM, first compound 1 µM
# [13] = second compound 0.316 µM, first compound 0.00316 µM
# [14] = second compound 0.316 µM, first compound 0.01 µM
# [15] = second compound 0.316 µM, first compound 0.0316 µM
# [16] = second compound 0.316 µM, first compound 0.1 µM
# [17] = second compound 0.316 µM, first compound 0.316 µM
# [18] = second compound 0.316 µM, first compound 1 µM
# [19] = second compound 1 µM, first compound 0.00316 µM
# [20] = second compound 1 µM, first compound 0.01 µM
# [21] = second compound 1 µM, first compound 0.0316 µM
# [22] = second compound 1 µM, first compound 0.1 µM
# [23] = second compound 1 µM, first compound 0.316 µM
# [24] = second compound 1 µM, first compound 1 µM
# [25] = second compound 3.16 µM, first compound 0.00316 µM
# [26] = second compound 3.16 µM, first compound 0.01 µM
# [27] = second compound 3.16 µM, first compound 0.0316 µM
# [28] = second compound 3.16 µM, first compound 0.1 µM
# [29] = second compound 3.16 µM, first compound 0.316 µM
# [30] = second compound 3.16 µM, first compound 1 µM
# [31] = second compound 10 µM, first compound 0.00316 µM
# [32] = second compound 10 µM, first compound 0.01 µM
# [33] = second compound 10 µM, first compound 0.0316 µM
# [34] = second compound 10 µM, first compound 0.1 µM
# [35] = second compound 10 µM, first compound 0.316 µM
# [36] = second compound 10 µM, first compound 1 µM
# 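Also: spheroids exposed to drugs for seven days before readout.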
# 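For viability, T/C in this document: percent viability relative to DMSO vehicle control taken as 100%.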
smiles,measurement,setting,value
C=CCn1c(=O)c2cnc(Nc3ccc(N4CCN(C)CC4)cc3)nc2n1-c1cccc(C(C)(C)O)n1 + Cc1cccc(N(C)C(=O)C2C(O)CCN2c2nc(C)cc(C(F)(F)F)c2C#N)c1,IC50,second compound 0.0316 µM,457 nM
same,IC50,second compound 0.1 µM,441 nM
same,IC50,second compound 0.316 µM,411 nM
same,IC50,second compound 1 µM,416 nM
same,IC50,second compound 3.16 µM,443 nM
same,IC50,second compound 10 µM,406 nM
same,"viability, T/C",[1],88.5%
same,"viability, T/C",[2],86%
same,"viability, T/C",[3],85.2%
same,"viability, T/C",[4],98%
same,"viability, T/C",[5],72.2%
same,"viability, T/C",[6],3.05%
same,"viability, T/C",[7],91.4%
same,"viability, T/C",[8],98.3%
same,"viability, T/C",[9],93.1%
same,"viability, T/C",[10],98.1%
same,"viability, T/C",[11],68.8%
same,"viability, T/C",[12],3.55%
same,"viability, T/C",[13],100%
same,"viability, T/C",[14],91.5%
same,"viability, T/C",[15],96.4%
same,"viability, T/C",[16],90.8%
same,"viability, T/C",[17],63.6%
same,"viability, T/C",[18],4%
same,"viability, T/C",[19],86.5%
same,"viability, T/C",[20],96.7%
same,"viability, T/C",[21],95.1%
same,"viability, T/C",[22],95.3%
same,"viability, T/C",[23],64.9%
same,"viability, T/C",[24],2.86%
same,"viability, T/C",[25],98.2%
same,"viability, T/C",[26],90.2%
same,"viability, T/C",[27],88.2%
same,"viability, T/C",[28],94%
same,"viability, T/C",[29],69.5%
same,"viability, T/C",[30],2.86%
same,"viability, T/C",[31],87.5%
same,"viability, T/C",[32],86.1%
same,"viability, T/C",[33],85.9%
same,"viability, T/C",[34],89.5%
same,"viability, T/C",[35],63%
same,"viability, T/C",[36],3.05%
CCc1c2c(nc3ccc(O)cc13)-c1cc3c(c(=O)n1C2)COC(=O)[C@]3(O)CC + Cc1cccc(N(C)C(=O)C2C(O)CCN2c2nc(C)cc(C(F)(F)F)c2C#N)c1,IC50,second compound 0.0316 µM,< 3.16 nM
same,IC50,second compound 0.1 µM,< 3.16 nM
same,IC50,second compound 0.316 µM,< 3.16 nM
same,IC50,second compound 1 µM,< 3.16 nM
same,IC50,second compound 3.16 µM,< 3.16 nM
same,IC50,second compound 10 µM,< 3.16 nM
same,"viability, T/C",[1],42.3%
same,"viability, T/C",[2],11.2%
same,"viability, T/C",[3],7.22%
same,"viability, T/C",[4],2.98%
same,"viability, T/C",[5],1.21%
same,"viability, T/C",[6],0.39%
same,"viability, T/C",[7],42.5%
same,"viability, T/C",[8],11.1%
same,"viability, T/C",[9],6.54%
same,"viability, T/C",[10],3.61%
same,"viability, T/C",[11],2%
same,"viability, T/C",[12],1.94%
same,"viability, T/C",[13],50%
same,"viability, T/C",[14],10.5%
same,"viability, T/C",[15],6.39%
same,"viability, T/C",[16],2.26%
same,"viability, T/C",[17],1.38%
same,"viability, T/C",[18],0.58%
same,"viability, T/C",[19],41.5%
same,"viability, T/C",[20],12.6%
same,"viability, T/C",[21],7.38%
same,"viability, T/C",[22],2.95%
same,"viability, T/C",[23],2.13%
same,"viability, T/C",[24],0.49%
same,"viability, T/C",[25],43.7%
same,"viability, T/C",[26],14.4%
same,"viability, T/C",[27],7.52%
same,"viability, T/C",[28],3.81%
same,"viability, T/C",[29],1.74%
same,"viability, T/C",[30],0.63%
same,"viability, T/C",[31],30.8%
same,"viability, T/C",[32],13.9%
same,"viability, T/C",[33],7.18%
same,"viability, T/C",[34],3.13%
same,"viability, T/C",[35],2.07%
same,"viability, T/C",[36],1.28%
CNCc1ccc(-c2[nH]c3cc(F)cc4c3c2CCNC4=O)cc1 + Cc1cccc(N(C)C(=O)C2C(O)CCN2c2nc(C)cc(C(F)(F)F)c2C#N)c1,IC50,second compound 0.0316 µM,> 10000 nM
same,IC50,second compound 0.1 µM,> 10000 nM
same,IC50,second compound 0.316 µM,> 10000 nM
same,IC50,second compound 1 µM,> 10000 nM
same,IC50,second compound 3.16 µM,> 10000 nM
same,IC50,second compound 10 µM,> 10000 nM
same,"viability, T/C",[3],89.5%
same,"viability, T/C",[4],74.2%
same,"viability, T/C",[5],88.5%
same,"viability, T/C",[6],83.2%
same,"viability, T/C","second compound 0.0316 µM, first compound 3.16 µM",72.7%
same,"viability, T/C","second compound 0.0316 µM, first compound 10 µM",58.3%
same,"viability, T/C",[9],90.4%
same,"viability, T/C",[10],85.8%
same,"viability, T/C",[11],75.2%
same,"viability, T/C",[12],79.5%
same,"viability, T/C","second compound 0.1 µM, first compound 3.16 µM",80.4%
same,"viability, T/C","second compound 0.1 µM, first compound 10 µM",66.9%
same,"viability, T/C",[15],93.3%
same,"viability, T/C",[16],77.5%
same,"viability, T/C",[17],83.1%
same,"viability, T/C",[18],82.9%
same,"viability, T/C","second compound 0.316 µM, first compound 3.16 µM",75.8%
same,"viability, T/C","second compound 0.316 µM, first compound 10 µM",57.6%
same,"viability, T/C",[21],78.2%
same,"viability, T/C",[22],79.7%
same,"viability, T/C",[23],87.1%
same,"viability, T/C",[24],73.5%
same,"viability, T/C","second compound 1 µM, first compound 3.16 µM",73.8%
same,"viability, T/C","second compound 1 µM, first compound 10 µM",60.3%
same,"viability, T/C",[27],86.5%
same,"viability, T/C",[28],73.6%
same,"viability, T/C",[29],79.8%
same,"viability, T/C",[30],83.1%
same,"viability, T/C","second compound 3.16 µM, first compound 3.16 µM",82%
same,"viability, T/C","second compound 3.16 µM, first compound 10 µM",54.8%
same,"viability, T/C",[33],74.8%
same,"viability, T/C",[34],70.3%
same,"viability, T/C",[35],72.7%
same,"viability, T/C",[36],69.6%
same,"viability, T/C","second compound 10 µM, first compound 3.16 µM",77.3%
same,"viability, T/C","second compound 10 µM, first compound 10 µM",61.1%
